In US20110230430A1, “SAPONIN EXTRACT FROM SAPONARIA SPP. AND USES THEREOF” (NATIONAL RESEARCH COUNCIL OF CANADA, priority 2008, published 2011):

Legend:
Type in all cases: cell-based, human
MCF-7 cells = assay: Dual Sensor: MitoCasp Assay in MCF-7 breast cancer cells; settings: 5 and 10 μM, 24 hours
Excerpt: Techniques to assay enzymatic and signaling processes involved in apoptosis have been developed as standard protocols. One example of an early step in apoptosis, is the release of cytochrome C from mitochondria and the activation of caspase-3. Induction of the caspases (a series of cytosolic proteases) is one of the most consistently observed features of apoptosis. Caspases are a family of proteolytic enzymes that transmit the apoptotic signal using a proteolytic cascade. […] Caspases 3 and 7 are effector caspases, central to the caspase cascade pathways. In particular, caspase-3 plays a central role in the process. […] Collapse of the mitochondrial membrane potential during apoptosis prevents the dye from accumulating in the mitochondria resulting in a decrease in fluorescent intensity that can be detected with flow cytometry. […] In this assay, caspase 3/7 activity is detected using a cell permeable carboxyfluorescein labeled caspase inhibitor, which binds covalently to active caspases 3 and 7. Cells that contain bound inhibitor are detected by an increase in fluorescence when samples are analyzed by flow cytometry. […]
MCF-7 cells were treated with 5.0 μM and 10 μM of saponins PC1526, PC1464 and PC1422 for 24 hours and assessed using Dual Sensor: MitoCasp™ Assay.

[1] = tested on: MDA-MB-231 (breast cancer) cells; assay: Hoechst 33342 staining of MDA-MB-231 cells; settings: 7 μM PC1448, 24 hours
Excerpt: (§1) Apoptosis can also be measured by Hoechst 33342 Staining. Cells undergoing apoptosis show several characteristic morphological changes. These changes include cell shrinkage and rounding, and the formation of cytoplasmic blebs on the cell surface. Nuclear material condenses along the edge of the nucleus followed by complete condensation and nuclear fragmentation (Hacker, G., 2000). Apoptotic cells eventually break up into membrane bound vesicles, which are known as apoptotic bodies. Hoechst 33342 is a fluorescent DNA-binding dye that allows visualization of chromatin distribution within a cell. Apoptotic nuclei have highly condensed chromatin, often in crescent shapes around the periphery of the nucleus.
(§2) A further indication of apoptotic activity, in addition to the assays described above, can be derived from observations of changes in cell architecture evident after induction of apoptosis. Hoechst 33342 is a fluorescent DNA-binding dye that allows visualization of chromatin distribution within a cell.
(§3) Cells undergoing apoptosis show several characteristic morphological changes. These changes include cell shrinkage and rounding, and the formation of cytoplasmic blebs on the cell surface. Nuclear material condenses along the edge of the nucleus followed by complete condensation and nuclear fragmentation (Hacker, G., 2000). […]

MDA-MB-231 cells = assay: APO LOGIX Carboxyfluorescein Caspase 9 Detection Kit in MDA-MB-231 cells
Excerpt: In a still further apoptotic assay, apoptosis can be measured by the APO LOGIX™ Carboxyfluorescein Caspase 9 Detection Kit. The APO LOGIX™ Carboxyfluorescein Caspase 9 Detection Kit uses a cell permeable carboxyfluorescein labeled caspase inhibitor, which binds covalently to active caspases 9. Caspase 9 is involved in initiating apoptosis through the mitochondrial pathway (Budihardjo I., et al. 1999). Cells that contain bound inhibitor are detected by an increase in fluorescence when samples are analyzed by flow cytometry.
The MDA-MB-231 cell line (ATCC #HTB-26) was derived from the pleural effusion of a patient with a breast adenocarcinoma (Cailleau et al., 1974). The cells were maintained in RPMI 1640 (Gibco) supplemented with 10% fetal bovine serum (Camera), 100 U/mL penicillin, 100 μg/mL streptomycin and 0.25 μg/mL amphotericin B. Cultures were maintained in medium at 37° C. with 5% CO2 and 100% relative humidity.
MDA-MB-231 cells were treated with PC1448 and assayed for apoptosis as previously described for PC-3 cells.

HT-29 cancer cells = assay: Dual Sensor: MitoCasp Assay in HT-29 colon cancer cells; settings: HT-29 cells, 2.5 μM, 5.0 μM and 10 μM, 23 hours
Excerpt: Techniques to assay enzymatic and signaling processes involved in apoptosis have been developed as standard protocols. One example of an early step in apoptosis, is the release of cytochrome C from mitochondria and the activation of caspase-3. Induction of the caspases (a series of cytosolic proteases) is one of the most consistently observed features of apoptosis. Caspases are a family of proteolytic enzymes that transmit the apoptotic signal using a proteolytic cascade. […] Caspases 3 and 7 are effector caspases, central to the caspase cascade pathways. In particular, caspase-3 plays a central role in the process. When caspases are activated, they cleave target proteins; one of the most important of these is poly-(ADP-ribose) polymerase (PARP), which is a protein located in the nucleus. Therefore, assays detecting release of cytochrome C, detecting caspase-3 activity and detecting PARP degradation are effective determinants of apoptosis. The loss of mitochondrial membrane potential is known to occur during apoptosis. […] Collapse of the mitochondrial membrane potential during apoptosis prevents the dye from accumulating in the mitochondria resulting in a decrease in fluorescent intensity that can be detected with flow cytometry. […] In this assay, caspase 3/7 activity is detected using a cell permeable carboxyfluorescein labeled caspase inhibitor, which binds covalently to active caspases 3 and 7. Cells that contain bound inhibitor are detected by an increase in fluorescence when samples are analyzed by flow cytometry.
Following PC1448 treatment, adherent and non-adherent cells were harvested and washed with cold PBS. […] Samples were analyzed by flow cytometry measuring the fluorescence emissions from 515 nm to 530 nm for caspase detection, and 574 nm to 600 nm for mitochondrial membrane potential detection. […]
HT-29 cancer cells were treated with 2.5 μM, 5.0 μM and 10 μM of PC1526 or PC1448 for 23 hours, or with 2.5 μM, 5.0 μM and 10 μM PC1422 for 24 hours and assessed using the Dual Sensor: MitoCasp™ Assay. […]

[2] = tested on: PC-3 (prostate cancer) cells; assay: Hoechst 33342 staining of PC-3 cells; settings: 7 μM PC1448, 24 hours
Excerpt: as §1, §2, §3

Substance | Induction of apoptosis (in words, FIG. 16) (MCF-7 cells) | Nuclear morphology after Hoechst 33342 staining (in words, FIG. 4) [1] | Caspase 9 positive cells (MDA-MB-231 cells; 14 μM PC1448, 10 hr) | Caspase 9 positive cells (MDA-MB-231 cells; 14 μM PC1448, 15 hr) | Caspase 9 positive cells (MDA-MB-231 cells; 14 μM PC1448, 20 hr) | Increase in cells with caspase 9 activity vs untreated (maximum effect) (MDA-MB-231 cells; 14 μM PC1448, 40 hours) | Caspase 9 positive cells (MDA-MB-231 cells; 14 μM PC1448, 40 hr) | Caspase 3/7 activity compared to untreated cells / induction of apoptosis (in words, FIG. 5) (HT-29 cancer cells) | Nuclear morphology after Hoechst 33342 staining (in words, FIG. 4) [2]
Segetoside I [PC1464] | do not induce apoptosis |  |  |  |  |  |  |  | 
Segetoside H [PC1448] |  | nuclear changes characteristic of apoptotic cells | 23.2% | 29.8% | 30.5% | 2.5 fold | 39.4% | increase in caspase 3/7 activity | nuclear changes characteristic of apoptotic cells
